Experimental data reported in article PMC10142028, “Influence of Molecular Structure and Physicochemical Properties of Immunosuppressive Drugs on Micelle Formulation Characteristics and Cutaneous Delivery” (Pharmaceutics, 2023).
≈ marks a conversion by molar mass, not a printed value. Entries after “also recorded” stand apart in the source; their conditions may differ. Where two headings read alike, the source gives them in different places.

Experiments:
[1] = Drug solubility in water and in aqueous solution of TPGS; type: physicochemical; details: for Improvement of drug water solubility by addition of 50 mg/mL TPGS: TPGS 50 mg/mL solution vs water; for solubility at 24 h: thermodynamic from solid; for Aqueous solubility: in words, measured experimentally
Protocol: The solutions were kept at room temperature during a 24 h period of stirring. The samples were then centrifuged and the supernatant was collected and diluted in ACN prior to a UHPLC-MS/MS analysis. All the samples were prepared in triplicate.

[2] = Drug content determination of micelle formulations (UHPLC-UV); type: physicochemical; details: for Drug content of Formulation 5: Formulation 5, corresponds to approximately 2.3 mg/mL; for Water solubility reached by polymeric micelle formulation: corresponding to approximately 4.5 mg/mL
Protocol: Micelle formulations were prepared using the thin-film hydration method. […] The acetone was slowly removed by rotary evaporation (Büchi Vac V-513 Rotavapor®; Flawil, Switzerland) until the formation of a uniform thin-film, which was left under the hood overnight and then hydrated with 4 mL of ultrapure water. After equilibration for 2 h, the micelle solution was centrifuged at 10,000 rpm for 15 min (Eppendorf Centrifuge 5804; Hamburg, Germany) to remove excess drug, and the supernatant was carefully collected.
The micelle formulation was optimized in order to reach a high drug loading. […] The formulation with the highest drug content, which satisfied reproducibility and stability criteria, was chosen for the subsequent in vitro release and skin delivery studies. Drug loading was determined by UHPLC-UV.
The amount of drug loaded in the micelles was quantified by UHPLC-UV. To ensure the complete destruction of the micelles and the release of encapsulated drug, samples were diluted in ACN prior to analysis. (1) Drug contentmgdrug/mLformulation=mass of drug in the formulationmg/volume of the formulationmL (2) Drug loadingmgdrug/gpolymer=drug in the formulationmg mL^−1/copolymer in the formulationg mL^−1 (3) Incorporation efficiency%=mass of drug incorporated in micellesmg/mass of drug introducedmg×100

[3] = Stability of the micelle solution after storage at 4 °C for 5 months; type: physicochemical; details: Formulation 6 (target 5 mg/mL), followed for 5 months
Protocol: Stability of the micelle solution was evaluated after storage at 4 °C for 5 months. Drug content and micelle size were determined at a series of time points (day 1, and then after 1, 2, 3, 4, and 5 months).

skin (porcine or human) = test system: skin (porcine or human); parameters: method as in PMID 16176283, PMID 14698574; details: independent of skin origin (porcine or human) and formulation composition; cited from earlier work
skin proteins = test system: skin proteins; parameters: method as in PMID 18524871; details: compared to TAC; cited from earlier work
[4] = source not given; cited from earlier work
Porcine ear skin [5] = assay: Skin delivery in vitro under infinite dose conditions and cutaneous biodistribution (Franz diffusion cells); details: micelle solution 0.2%, 12 h; for Drug deposition in skin regions (comparison): porcine skin; for Permeation across the skin (concentration, under the limit of quantification): receptor phase
Protocol: (§1) Porcine ear skin was used for skin delivery studies and was supplied by a local abattoir (CARRE; Rolle, CH). Briefly, skin samples were processed with a Zimmer air dermatome (Münsingen, Switzerland) to obtain pieces with a thickness of ∼800 µm. Hair was removed carefully from the skin surface using clippers. Circular disks of 30 mm were then punched out (Berg & Schmid HK 500; Urdorf, Switzerland) and stored at −20 °C until use, for a maximum period of 3 months.
(§2) Porcine skin samples were mounted in Franz diffusion cells (Milian SA; Meyrin, Switzerland) with a formulation contact area of 2 cm^2. In the donor compartment, the optimal micelle solution 0.2% was applied under infinite dose conditions (500 µL/cm^2) during 12 h. The receptor compartment was filled with 10 mL of phosphate buffered saline at pH 7.4 containing 1% BSA. The receiver phase was stirred at 250 rpm and maintained at 32 °C throughout the experiment. […] After the experiment, 1 mL of this phase was withdrawn to quantify drug permeation. Samples were diluted in ACN to precipitate BSA. After centrifugation at 5000 rpm at 4 °C during 15 min, the permeation samples were analysed by UHPLC-MS/MS. Each skin sample was carefully cleaned with a cotton swab and a wash solution to remove the residual formulation from skin surface.
(§3) At the end of the experiment, a small area, 0.8 cm^2, was punched out from the 2 cm^2 skin samples. These skin discs were snap-frozen in isopentane cooled by liquid nitrogen, followed by cryotoming (Thermo Scientific CryoStarTM NX70; Reinach, Switzerland) to obtain two lamellae with a thickness of 20 µm and 19 lamellae with a thickness of 40 μm. […] Drug deposited in each lamella was extracted in 300 µL of ACN overnight with continuous stirring at room temperature. The extraction samples were centrifuged at 5000 rpm for 10 min and diluted prior to UHPLC-MS/MS analysis.

Porcine ear skin [6] = details: pig, 12 h, 0.2 %, pH 7.4
Protocol: as §1, §2, §3

[7] = aqueous solution of TPGS (50 mg/mL), aqueous with cosolvent or surfactant or cyclodextrin, Drug solubility at TPGS concentration (33 mM or 50 mg/mL), room temperature, 24 h
[8] = aqueous solution of TPGS (50 mg/mL), aqueous with cosolvent or surfactant or cyclodextrin, Solubility on simple addition of the drug in the aqueous solution of TPGS, TPGS 50 mg/mL
[9] = water, water, room temperature, 24 h stirring, read-out: Drug solubility in water

SMILES: CC[C@@H]1/C=C(\C)C[C@H](C)C[C@H](OC)[C@H]2O[C@@](O)(C(=O)C(=O)N3CCCC[C@H]3C(=O)O[C@H](/C(C)=C/[C@@H]3CC[C@H](Cl)[C@H](OC)C3)[C@H](C)[C@@H](O)CC1=O)[C@H](C)C[C@@H]2OC [PIM, pimecrolimus]
- Improvement of drug water solubility by addition of 50 mg/mL TPGS [1]: 1943 fold
- solubility at 24 h [1, 7]: 330 ± 31.2 µM (≈ 268 µg/mL)
- solubility at 24 h [1, 8]: 300 µM (≈ 243 µg/mL)
- Aqueous solubility [1]: Poor
- solubility at 24 h [1, 9]: 0.17 ± 0.02 µM (≈ 0.138 µg/mL)
- Drug content of Formulation 5 [2]: 2.8 mM
- Water solubility reached by polymeric micelle formulation [2]: 5.6 mM
- Stability of Formulation 6 in terms of drug content [3]: remained stable during the 5 months
- Permeation across the skin (comparison) (skin (porcine or human)): lower than TAC
- Affinity/binding to skin components (comparison) (skin proteins): stronger affinity with the components of the upper layers of the skin compared to TAC; also recorded: higher capacity-binding to other skin proteins
- Ionizable [4]: No
- Drug deposition in skin regions (comparison) (Porcine ear skin [5]): high percentage of PIM was delivered in the stratum corneum; also recorded: higher in the viable epidermis in comparison to SIR and TAC; also recorded: significantly higher in the upper region of the skin (20–180 µm)
- Permeation across the skin (concentration, under the limit of quantification) (Porcine ear skin [5]): < 3 ng/mL

SMILES: CO[C@H]1C[C@@H]2CC[C@@H](C)[C@@](O)(O2)C(=O)C(=O)N2CCCC[C@H]2C(=O)O[C@H]([C@H](C)C[C@@H]2CC[C@@H](O)[C@H](OC)C2)CC(=O)[C@H](C)/C=C(\C)[C@@H](O)[C@@H](OC)C(=O)[C@H](C)C[C@H](C)/C=C/C=C/C=C/1C [SIR, sirolimus]
- Solubility on simple addition of the drug in the aqueous solution of TPGS ([1]; TPGS 50 mg/mL): 1.2 mM
- Improvement of drug water solubility by addition of 50 mg/mL TPGS [1]: 147 fold
- solubility at 24 h [1, 7]: 1210 ± 124 µM (≈ 1110 µg/mL)
- Aqueous solubility [1]: Poor
- solubility at 24 h [1, 9]: 8.24 ± 0.22 µM (≈ 7.53 µg/mL)
- Drug content of Formulation 5 [2]: 2.5 mM
- Water solubility reached by polymeric micelle formulation [2]: 4.9 mM
- Stability of Formulation 6 in terms of drug content [3]: became unstable after 4 months
- Permeation across the skin (concentration, under the limit of quantification) (Porcine ear skin [6]): < 3 ng/mL
- Ionizable [4]: No

SMILES: C=CC[C@@H]1/C=C(\C)C[C@H](C)C[C@H](OC)[C@H]2O[C@@](O)(C(=O)C(=O)N3CCCC[C@H]3C(=O)O[C@H](/C(C)=C/[C@@H]3CC[C@@H](O)[C@H](OC)C3)[C@H](C)[C@@H](O)CC1=O)[C@H](C)C[C@@H]2OC [TAC, tacrolimus]
- Improvement of drug water solubility by addition of 50 mg/mL TPGS [1]: 3184 fold
- solubility at 24 h [1, 7]: 637 ± 73.5 µM (≈ 512 µg/mL)
- solubility at 24 h [1, 8]: 600 µM (≈ 482 µg/mL)
- Aqueous solubility [1]: Poor
- solubility at 24 h [1, 9]: 0.2 ± 0.05 µM (≈ 0.161 µg/mL)
- Drug content of Formulation 5 [2]: 2.9 mM
- Water solubility reached by polymeric micelle formulation [2]: 5.6 mM
- Stability of Formulation 6 in terms of drug content [3]: remained stable during the 5 months
- Ionizable [4]: No
- Drug deposition in skin regions (comparison) (Porcine ear skin [5]): large percentage of skin deposition in the dermis
- Permeation across the skin (concentration, under the limit of quantification) (Porcine ear skin [5]): < 3 ng/mL
